Data set [1] concerns non-small cell lung tumor line xenografts. The settings on record: mice, reference 20; cited from earlier work.
The test system of data set [2] is HT1080 cells. Kind of data set: Migration in Trans-well filters and wound healing of HT1080 cells. The data set is classed as cell-based, human. The settings on record: 6 h, Casodex 10 μM. The protocol: (§1) FIG. 4: The S1 peptide inhibits EGF-stimulated migration and MMP-9 secretion in HT1080 cells. Quiescent HT1080 cells were used. In A, cells were left untreated or treated for 6 h with the indicated compounds. MMP-9 release was assayed as described in Methods. In B, cells were allowed to migrate for 6 h in Trans-well filters in the absence or presence of the indicated compounds. Migrated cells were stained and counted as reported in Methods. In A and B, data were expressed as relative increase. Mean and SEM is shown. n represents the number of experiments. In C, cells were wounded and then left unstimulated or stimulated for 6 h with the indicated compounds. Contrast-phase images are representative of 3 different experiments, each performed in duplicate.
(§2) BrdU incorporation, migration and wound healing analysis were done as described (3, 11). MMP-9 activity was assayed (12, 13), using the fluorescent AK411 kit (BIOMOL Res. Lab.).

The nature of data set [3]: Body weight of HT1080 xenograft mice. The data set is classed as in vivo. To be noted: Casodex-treated vs control mice. The protocol:
(§3) HT1080 cells in 50% (v/v) Matrigel solution in phosphate-buffered saline (PBS; pH 7.4) were subcutaneously injected in the dorsal posterior region at 2.5×10^6 cells/male athymic mice (CD mice, Charles-River Italia) without hormone priming. Animals were randomly selected for the treatment with Casodex dissolved in 0.1% ethanol or vehicle alone for additional 4 weeks. Tumour volumes of HT1080 cell xeno-grafts were measured by a calliper and expressed as tumour mass (mm^3). For the treatment of each animal, 200 μl of 1 μM Casodex in 0.1% ethanol or the same amount of vehicle alone were intra-peritoneally administered at alternate days to the mice. No difference in body weight was detected between control mice or Casodex-treated mice.

Another data set relates to HT1080 cell xenografts. Nature of the data set: HT1080 xenografts in nude male mice, tumor mass. It counts as in vivo. The settings on record: 200 μl of 1 μM Casodex i.p. at alternate days, 4 weeks, vs vehicle. As to the method: FIG. 1: Casodex reduces the growth of human fibrosarcoma HT1080 xenografts. HT1080 xenografts were established in nude male mice as described in Methods. Tumors were treated with vehicle alone (ethanol), or the pure androgen antagonist, Casodex (Cx; at 1 μM; Sigma-Aldrich). Tumor mass was measured at the indicated times. Mean and SEM are shown. n represents the number of experiments.
as §3

For data set [4], the system named is HT1080 cells. Kind of data set: BrdU incorporation (DNA synthesis) in HT1080 cells. It counts as cell-based, human. To be noted: EGF, Casodex 10 μM. The protocol:
Androgen challenging of these cells neither induces AR nuclear translocation, nor enhances DNA synthesis while robustly increases cell motility. In A, quiescent HT1080 cells were transfected with 3416 or 3424 ARE-luc constructs with or without hAR expressing plasmid. Details of these procedures have been described in Methods. Cells were left un-stimulated or stimulated for 18 h with 10 nM R1881. The luciferase activity was assayed, normalized using beta-gal as an internal control, and expressed as fold induction. Means and SEM are shown; n represents the number of experiments. […] In B, quiescent HT1080 cells on coverslips were left untreated or treated for 60 min with 10 nM R1881. Cells were analysed by IF for AR (left images) or Hoechst (right images). Images are representative of three independent experiments. […] In C, BrdU incorporation in cells on coverslips was analysed and expressed as in FIG. 2. In D, the number of migrated cells was evaluated and expressed as relative increase. […]
FIG. 3: Inhibition by S1 peptide of AR/Src complex, Src activation and DNA synthesis triggered by EGF in HT1080 cells. […] Lower section in A, lysates were immune-precipitated with anti EGFR Ab and proteins in immune-complexes were detected using antibodies against the indicated proteins. […] After in vivo pulse with BrdU (100 μM; Sigma), BrdU incorporation was analyzed by IF and expressed as % of total nuclei. […]

In the next data set the target is T1, Src (Homo sapiens, UniProt P12931).
T1 construct: lysates were immune-precipitated with the anti-Src MAb and Src activity in immune-complexes was assayed using enolase as a substrate; endogenous in cells; host or cells: HT1080 human fibrosarcoma cells
Nature of the data set: Src kinase assay in immune-complexes with enolase as substrate, EGF-stimulated HT1080 cells. The data set is classed as cell-based. To be noted: EGF 100 ng/ml, 10 μM Casodex, compared with 1 nM S1 peptide. As to the method: FIG. 3: Inhibition by S1 peptide of AR/Src complex, Src activation and DNA synthesis triggered by EGF in HT1080 cells. Quiescent HT1080 cells were used. The cells were left un-stimulated or stimulated for 10 min with EGF (at 100 ng/ml; Roche) in the absence or presence of S1 or Ss peptide (both at 1 nM). Casodex (at 10 μM) was used for comparison with the S1 peptide. The same concentrations of peptides and Casodex were used throughout the experiments. Upper section in A, the Western blot of HT1080 cell lysates with anti-EGFR antibody is shown. […] Lower section in A, lysates were immune-precipitated with anti EGFR Ab and proteins in immune-complexes were detected using antibodies against the indicated proteins. In B, lysates were immune-precipitated with the anti-Src MAb and Src activity in immune-complexes was assayed using enolase as a substrate. In C, cells on coverslips were left untreated or treated for 18 h with the indicated compounds. After in vivo pulse with BrdU (100 μM; Sigma), BrdU incorporation was analyzed by IF and expressed as % of total nuclei. Mean and SEM are shown. n represents the number of experiments.
Src tyrosine kinase was immune-precipitated, detected and assayed using enolase as a substrate (15). Src, EGF-R and tubulin were detected from cell lysates using appropriate antibodies (7). AR was immune-precipitated and detected as reported (3). […]

For the next data set, the system named is MMP-9. Kind of data set: MMP-9 release from HT1080 cells (fluorescent AK411 kit). It counts as cell-based, human. To be noted: 6 h, Casodex 10 μM. The protocol: as §1, §2
The target in the next data set is T2, EGF receptor (EGFR) (human, UniProt P00533 25-1210).
T2 construct: Endogenous protein of HT1080 cells
Kind of data set: immune-precipitation with anti-EGFR antibody from EGF-stimulated HT1080 lysates, immunoblot. The protocol:
Quiescent HT1080 cells were used. […] The same concentrations of peptides and Casodex were used throughout the experiments. […] In C, cells on coverslips were left untreated or treated for 18 h with the indicated compounds. After in vivo pulse with BrdU (100 μM; Sigma), BrdU incorporation was analyzed by IF and expressed as % of total nuclei. Mean and SEM are shown. n represents the number of experiments.
The ECL system (GE Healthcare) was used to reveal immune-reactive proteins.
(Immunoblotting shows a protein as a band on a membrane.)

T1 sequence (P12931 whole entry): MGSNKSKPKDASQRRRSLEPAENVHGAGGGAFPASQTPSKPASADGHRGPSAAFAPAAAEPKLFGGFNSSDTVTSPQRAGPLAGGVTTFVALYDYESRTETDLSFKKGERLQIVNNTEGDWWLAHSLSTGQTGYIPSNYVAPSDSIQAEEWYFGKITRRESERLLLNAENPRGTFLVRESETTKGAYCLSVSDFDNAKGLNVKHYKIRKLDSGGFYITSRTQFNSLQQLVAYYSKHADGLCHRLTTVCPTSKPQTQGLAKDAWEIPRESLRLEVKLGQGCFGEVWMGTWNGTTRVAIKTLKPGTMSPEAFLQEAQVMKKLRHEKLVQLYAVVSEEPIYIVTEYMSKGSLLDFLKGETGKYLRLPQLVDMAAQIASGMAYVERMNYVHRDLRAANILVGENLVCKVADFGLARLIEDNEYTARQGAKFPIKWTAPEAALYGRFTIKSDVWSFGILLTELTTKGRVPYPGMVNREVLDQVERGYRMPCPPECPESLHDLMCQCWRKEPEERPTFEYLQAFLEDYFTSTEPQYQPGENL

Regarding `C[C@]12CC[C@@H]3c4ccc(O)cc4C[C@@H](CCCCCCCCC[S+]([O-])CCCC(F)(F)C(F)(F)F)[C@H]3[C@@H]1CC[C@@H]2O` (some centres unmarked) [ICI 182,780], the “estrogen-stimulated growth of non-small cell lung tumor line xenografts” value in data set [1] is given as “blocks”.
As to `CC(O)(CS(=O)(=O)c1ccc(F)cc1)C(=O)Nc1ccc(C#N)c(C(F)(F)F)c1` (centres unmarked) [Casodex, reference compound], in the data set on HT1080 cells [2], the EGF-increased motility entry is on record as “inhibited at a similar extent”. For the same molecule, the body weight result in data set [3] was “No difference”. In addition, the “growth (tumor mass) of HT1080 xenografts” value in the data set on HT1080 cell xenografts is reported as “reduced”. Also, the “EGF mitogenic effect (DNA synthesis)” value with HT1080 cells [4] is “abolishes”. Besides, the “EGF stimulation of Src activity” value at Src is listed as “comparable”. The “EGF-stimulated MMP-9 secretion” value in the data set with MMP-9 is “inhibits”.

B1: androgen receptor (AR) (receptor, human, UniProt P10275 1-920, looked up)
chain: MEVQLGLGRVYPRPPSKTYRGAFQNLFQSVREVIQNPGPRHPEAASAAPPGASLLLLQQQQQQQQQQQQQQQQQQQQQQQETSPRQQQQQQGEDGSPQAHRRGPTGYLVLDEEQQPSQPQSALECHPERGCVPEPGAAVAASKGLPQQLPAPPDEDDSAAPSTLSLLGPTFPGLSSCSADLKDILSEASTMQLLQQQQQEAVSEGSSSGRAREASGAPTSSKDNYLGGTSTISDNAKELCKAVSVSMGLGVEALEHLSPGEQLRGDCMYAPLLGVPPAVRPTPCAPLAECKGSLLDDSAGKSTEDTAEYSPFKGGYTKGLEGESLGCSGSAAAGSSGTLELPSTLSLYKSGALDEAAAYQSRDYYNFPLALAGPPPPPPPPHPHARIKLENPLDYGSAWAAAAAQCRYGDLASLHGAGAAGPGSGSPSAAASSSWHTLFTAEEGQLYGPCGGGGGGGGGGGGGGGGGGGGGGGEAGAVAPYGYTRPPQGLAGQESDFTAPDVWYPGGMVSRVPYPSPTCVKSEMGPWMDSYSGPYGDMRLETARDHVLPIDYYFPPQKTCLICGDEASGCHYGALTCGSCKVFFKRAAEGKQKYLCASRNDCTIDKFRRKNCPSCRLRKCYEAGMTLGARKLKKLGNLKLQEEGEASSTTSPTEETTQKLTVSHIEGYECQPIFLNVLEAIEPGVVCAGHDNNQPDSFAALLSSLNELGERQLVHVVKWAKALPGFRNLHVDDQMAVIQYSWMGLMVFAMGWRSFTNVNSRMLYFAPDLVFNEYRMHKSRMYSQCVRMRHLSQEFGWLQITPQEFLCMKALLLFSIIPVDGLKNQKFFDELRMNYIKELDRIIACKRKNPTSCSRRFYQLTKLLDSVQPIARELHQFTFDLLIKSHMVSVDFPEMMAEIISVQVPKILSGKVKPIYFHTQ
notes: Endogenous protein of HT1080 cells (co-immunoprecipitation from lysates)
B1: the binding result in the data set with EGF receptor (EGFR) is listed as “binds”.
